Experimental data: publication PMC6151599, “Intestinal Absorption of Triterpenoids and Flavonoids from Glycyrrhizae radix et rhizoma in the Human Caco-2 Monolayer Cell Model” (Molecules : A Journal of Synthetic Chemistry and Natural …, 2017)
“Also recorded” adds a separate entry of the source. Read-outs that look alike come from different tables or passages of the source.

Legend:
[1] = Bidirectional transport (Papp) across Caco-2 cell monolayer; type: in vitro ADME, human; details: human; for efflux ratio at 90 min, 50 µM: Caco-2, Caco-2 monolayer, read-out: Efflux Ratio (Papp BL→AP to Papp AP→BL); for Papp A→B at 90 min, 50 µM / Papp B→A at 90 min, 50 µM / Papp at 90 min, 50 µM: Caco-2 monolayer; for Papp A→B at 90 min, 50 µM / Papp B→A at 90 min, 50 µM: incubation up to 90 min, n = 3; for Papp at 90 min, 50 µM: both directions
Experimental: (§1) The Caco-2 cell monolayer permeability was carried out according to the previously reported method. Briefly, the Caco-2 cells were maintained in DMEM containing 10% FBS, 1% NEAA, 100 units/mL of penicillin, and 100 µg/mL of streptomycin, in a constant humidity atmosphere of 5% CO2 and 95% air at 37 °C. For confluence and differentiation, cells were seeded at a density of 1 × 10^5 cells/cm^2 into 12-well Transwell plates (insert diameter 12 mm, pore size 3.0 μm, membrane growth area 1.12 cm^2, Costar® #3402) and were allowed to grow for 21 days before the permeation experiment. On day 21, the monolayers with TEER values > 500 Ω·cm^2 were qualified for the transport experiment. The transport study was initiated by the careful removal of the culture medium from AP and BL sides of the inserts. Caco-2 monolayers were rinsed twice with pre-warmed HBSS and were incubated by pre-warmed HBSS for 30 min at 37 °C. […] The assayed solutions (50 µM) were added to the AP side (0.5 mL, for absorption transport) or BL side (1.5 mL, for efflux transport) of the inserts, while the receiving chamber contained the corresponding volume of HBSS. Incubation was performed at 37 °C for 90 min, with shaking at 50 rpm. Samples were collected from the inserts and lyophilized. The dried sample was then sonicated with the appropriate volume of MeOH, followed by centrifugation at 15,000× g for 10 min. The supernatant was filtered through a 0.45 μm filter and injected into HPLC system for quantitative analysis.
(§2) The AP to BL or BL to AP permeability coefficient (Papp) value of each compound was calculated based on the following equation:Papp = (dQ/dt) × (1/A) × (1/C0) (cm/s)(1) where dQ/dt is the rate of the appearance of the test compound on the receiver compartment (μmol/s), C0 is the initial test compound concentration on the donor compartment (μmol/mL), and A is the surface area of Caco-2 monolayer (cm^2).
(§3) While shaking the samples (37 °C, 50 rpm), 1.3 mL aliquots were taken from BL side or 0.45 mL aliquots were taken from AP side at 30 min intervals from […].
(§4) After shaking the samples (37 °C, 50 rpm) in a shaking water bath for 90 min, aliquots were collected as described above.

Caco-2 cell monolayer [2] = experiment: as above; type: in vitro ADME, human; details: for Time course of bilateral permeation: 0–180 min at 50 μM; for Transport mechanism / Efflux Ratio (Papp BL→AP to Papp AP→BL): Caco-2 monolayer; for Efflux Ratio (Papp BL→AP to Papp AP→BL): 90 min; for Concentration dependence of rate of membrane permeation: at 90 min within test range of concentration; for Absorption designation: from Caco-2 Papp compared with propranolol and atenolol
Experimental: as §1, §2, §3, §4

[3] = Intracellular accumulation and total recovery (mass balance) at the end of transport; type: in vitro ADME, human; details: human, Caco-2, end of transport, n = 3
Experimental: (§5) To measure the amount of intracellular accumulation, the Caco-2 cells were rinsed three times with ice-cold HBSS at the end of transport experiments. After three freeze (−20 °C)-thaw (room temperature) cycles, the lysed Caco-2 cells were lyophilized. The dried cells were sonicated in 0.2 mL of 70% aqueous MeOH for 20 min and then centrifuged at 15,000× g for 10 min. The supernatant was filtered through a 0.45 μm filter and a 10 μL aliquot was injected into the HPLC system for analysis. To check the mass balance, the recoveries of the assayed compounds were measured at both sides of the insert and intracellular accumulation of the Caco-2 cells.

Caco-2 cell monolayer [4] = details: cited from earlier work; for Absorption designation: from previously reported Caco-2 Papp
[5] = Bidirectional transport (Papp) across Caco-2 cell monolayer; type: in vitro ADME; details: human, ratio of previously reported Papp values (refs 35, 36), read-out: Efflux Ratio (Papp BL→AP to Papp AP→BL)
Caco-2 cell monolayer [6] = experiment: Intracellular accumulation and total recovery (mass balance) at the end of transport; type: in vitro ADME, human
Experimental: as §5

[7] = end of transport, n = 3, –: not detected

Structure (SMILES)	efflux ratio at 90 min, 50 µM [1]	Papp A→B at 90 min, 50 µM [1] [×10⁻⁶ cm/s]	Papp B→A at 90 min, 50 µM [1] [×10⁻⁶ cm/s]	Papp at 90 min, 50 µM [1] [×10⁻⁶ cm/s]	recovery ([3]; read-out: Total recovery AP→BL) [%]	recovery ([3]; read-out: Total recovery BL→AP) [%]	other results
CC1(C)[C@@H](O[C@@H]2O[C@H](C(=O)O)[C@@H](O)[C@H](O)[C@H]2O)CC[C@]2(C)[C@H]3C(=O)C=C4[C@@H]5C[C@@](C)(C(=O)O)CC[C@]5(C)CC[C@@]4(C)[C@]3(C)CC[C@@H]12 [Compound 2, glycyrrhetic acid-3-O-mono-β-D-glucuronide]	1.06 to 1.11	1.55 ± 0.09	1.65 ± 0.95	~1	97.04 ± 0.36	91.6 ± 1.27	Time course of bilateral permeation (Caco-2 cell monolayer [2]): increased approximately linearly; Transport mechanism (Caco-2 cell monolayer [2]): passive diffusion; Efflux Ratio (Papp BL→AP to Papp AP→BL) (Caco-2 cell monolayer [2]): 1.06; Concentration dependence of rate of membrane permeation (Caco-2 cell monolayer [2]): increased approximately linearly; Absorption designation (Caco-2 cell monolayer [2]): moderately absorbed
O=C(/C=C/c1ccc(O)cc1)c1ccc(O)cc1O [Compound 11, isoliquiritigenin]	–	–	–	–	–	–	Papp BL→AP (Caco-2 cell monolayer [4]; Caco-2 monolayer): 9.35 ± 0.43 ×10^−6 cm/s
O=C1C[C@@H](c2ccc(O[C@@H]3O[C@H](CO)[C@@H](O)[C@H](O)[C@H]3O)cc2)Oc2cc(O)ccc21 [Compound 13, liquiritin]	–	–	–	–	–	–	efflux ratio [5]: 0.98; Papp AP→BL (Caco-2 cell monolayer [4]; Caco-2 monolayer): 0.54 ± 0.02 ×10^−6 cm/s; Papp BL→AP (Caco-2 cell monolayer [4]; Caco-2 monolayer): 0.53 ± 0.03 ×10^−6 cm/s; Papp from BL to AP direction (Caco-2 cell monolayer [4]; Caco-2 monolayer): (5.32 ± 0.31) × 10^−7 cm/s; Papp values (bidirectional) (Caco-2 cell monolayer [4]; Caco-2 monolayer): ~0.1 ×10⁻⁶ cm/s; Absorption designation (Caco-2 cell monolayer [4]): poorly absorbed
CC1(C)[C@@H](O[C@H]2O[C@H](C(=O)O)[C@@H](O)[C@H](O)[C@H]2O[C@@H]2O[C@H](C(=O)O)[C@@H](O)[C@H](O)[C@H]2O)CC[C@]2(C)[C@H]3C(=O)C=C4[C@@H]5C[C@@](C)(C(=O)O)CC[C@]5(C)CC[C@@]4(C)[C@]3(C)CC[C@@H]12 [Compound 1, glycyrrhizin]	–	–	–	< 0.1	–	–	Detection of compound in the receiving side (Caco-2 cell monolayer [2]; after incubation for 90 min, AP→BL and BL→AP): not detected; also recorded: below the lower limit of detection; Absorption designation (Caco-2 cell monolayer [2]): very poorly absorbed; also recorded: poorly absorbed
C=CC(C)(C)c1cc(/C=C/C(=O)c2ccc(O)cc2)c(OC)cc1O [Compound 4, licochalcone A]	1.06	1.68 ± 0.13	1.78 ± 0.03	–	81.88 ± 0.67	90.4 ± 2.74	Absorption designation (Caco-2 cell monolayer [2]): moderately absorbed; Cell accumulation / intracellular uptake (in words) (Caco-2 cell monolayer [6]; all bidirectional transport): higher intracellular uptake; also recorded: higher accumulation; Total recovery AP→BL (Caco-2 cell monolayer [6]; end of transport, n = 3): relatively lower; CA (cell accumulation) AP→BL (Caco-2 cell monolayer [6]; [7]): 50.52 ± 1.88%; CA (cell accumulation) BL→AP (Caco-2 cell monolayer [6]; [7]): 42.56 ± 2.36%
CC1(C)[C@@H](O)CC[C@]2(C)[C@H]3C(=O)C=C4[C@@H]5C[C@@](C)(C(=O)O)CC[C@]5(C)CC[C@@]4(C)[C@]3(C)CC[C@@H]12 [Compound 3, glycyrrhetinic acid]	1.06 to 1.11	12.6 ± 0.4	14 ± 1.3	> 10	85.1 ± 2.33	98.24 ± 0.59	Time course of bilateral permeation (Caco-2 cell monolayer [2]): increased approximately linearly; Transport mechanism (Caco-2 cell monolayer [2]): passive diffusion; Efflux Ratio (Papp BL→AP to Papp AP→BL) (Caco-2 cell monolayer [2]): 1.11; Concentration dependence of rate of membrane permeation (Caco-2 cell monolayer [2]): increased approximately linearly; CA (cell accumulation) AP→BL (Caco-2 cell monolayer [6]; [7]): 0.25 ± 0.01%
CC(C)NCC(O)COc1cccc2ccccc12 (stereo not shown) [propranolol, reference compound]	–	–	–	–	–	–	Papp ([1]; Caco-2, read-out: Papp of transport markers): 25.1 ×10⁻⁶ cm/s
O=C(/C=C/c1ccc(O[C@@H]2O[C@H](CO)[C@@H](O)[C@H](O)[C@H]2O)cc1)c1ccc(O)cc1O [Compound 12, isoliquiritin]	–	–	–	–	–	–	efflux ratio [5]: 0.89; Papp AP→BL (Caco-2 cell monolayer [4]; Caco-2 monolayer): 0.87 ± 0.02 ×10^−6 cm/s; Papp BL→AP (Caco-2 cell monolayer [4]; Caco-2 monolayer): 0.77 ± 0.07 ×10^−6 cm/s; Papp from AP to BL direction (Caco-2 cell monolayer [4]; Caco-2 monolayer): (8.69 ± 0.15) × 10^−7 cm/s; Papp from BL to AP direction (Caco-2 cell monolayer [4]; Caco-2 monolayer): (7.68 ± 0.66) × 10^−7 cm/s; Papp values (bidirectional) (Caco-2 cell monolayer [4]; Caco-2 monolayer): ≤ 0.1 ×10⁻⁶ cm/s; Absorption designation (Caco-2 cell monolayer [4]): poorly absorbed

Further lines, with some results ahead:

efflux ratio at 90 min, 50 µM [1]	Papp A→B at 90 min, 50 µM [1] [×10⁻⁶ cm/s]	Papp B→A at 90 min, 50 µM [1] [×10⁻⁶ cm/s]	Papp at 90 min, 50 µM [1] [×10⁻⁶ cm/s]	recovery ([3]; read-out: Total recovery AP→BL) [%]	recovery ([3]; read-out: Total recovery BL→AP) [%]	Structure (SMILES)	other results
0.88	17.8 ± 0.6	15.7 ± 0.3	~10	87 ± 2.78	94.8 ± 4.29	O=C1C[C@@H](c2ccc(O)cc2)Oc2cc(O)ccc21 [Compound 9, liquiritigenin]	Time course of bilateral permeation (Caco-2 cell monolayer [2]): increased approximately linearly; Concentration dependence of rate of membrane permeation (Caco-2 cell monolayer [2]): increased approximately linearly
1.22	24.7 ± 2.8	30.2 ± 2.4	–	96.2 ± 0.19	94.5 ± 2.89	COc1c(/C=C/C(=O)c2ccc(O)cc2)ccc(O)c1O [Compound 5, licochalcone B]	–
1.15	20.7 ± 1	23.8 ± 0.3	–	96.9 ± 2.67	97.7 ± 3.29	COc1cc(O)ccc1/C=C/C(=O)c1ccc(O)cc1 [Compound 7, echinatin]	–
1.17	22.5 ± 1	26.4 ± 1.3	–	97.5 ± 1.26	96.1 ± 4.55	COc1c(/C=C/C(=O)c2ccc(O)cc2)ccc(O)c1CC=C(C)C [Compound 6, licochalcone C]	–
